US20240182333A1, “METHODS OF TREATING COMPOUNDS USING VISIBLE LIGHT-ENABLED ACTIVATION OF PEROXYDISULFATE” (THE TEXAS A&M UNIVERSITY SYSTEM, priority 2022, published 2024)

Experiments:
[1] = Decay of PDS in dark and under visible light; format: physicochemical; conditions: for PDS decayed: within 240 min, regardless of the phosphate
Method: (§1) USA) 10 cm away from the lamp. The tubes in the dark treatments were covered with aluminum foil. To further confirm the PDS activation by visible light, experiments were also conducted with a UV filter film covering the simulated sunlight lamp to eliminate the effect of UV light. 1.0 mL of sample was withdrawn from each tube at different elapsed times (t=0, 1, 2, 3, 4, 5, 10, 20, 30, 60, 90, 120, and 240 min) and immediately quenched by 20 μL of 5.0 M sodium thiosulfate. The concentrations of all compositions in collected samples were measured with a Dionex UltiMate 3000 high-performance liquid chromatograph (HPLC) (Sunnyvale, USA). The settings of HPLC are provided in Example 1. The change in the concentration of PDS under different conditions was determined spectrophotometrically via an oxidation decolorization method and a modified iodometric titration method, respectively. The initial and final pH in each tube were measured with an Accumet AE150 pH meter (Westford, USA).
In order to verify whether PDS was directly activated by visible light, the impacts of solution constituents were examined. Because 10 mM phosphate buffer was added to control the initial pH to 7.0 to take into account of the typical pH of natural waters, the impact of phosphate buffer on the decay of PDS was investigated. […] Approximately 20% and 90% of PDS decayed within 240 min in dark and under visible light, respectively, regardless of the phosphate.

[2] = Degradation of compounds by PDS in dark and under visible light (HPLC); format: physicochemical; conditions: for pseudo-first-order rate constant kobs of ATZ degradation: [ATZ]0=10.0 μM, [PDS]0=5.0 mM, pH0=7.0, 25° C.
Method: Various reactions were carried out in 40 mL glass tubes with constant stirring at 300 rpm at 25±0.5° C. The temperature of solutions was monitored using a thermometer throughout the experiments. The initial concentration of atrazine (ATZ) was 10.0 uM, and the initial concentration of PDS was 5.0 mM. The irradiation fluxes emitted from the lamp and received by the solutions were measured with a LS125 UV light meter (Linshang Technology, Shenzhen, China) and a Solar Light PMA2100 radiometer (Solar Light Company, Philadelphia,
as §1
A simulated sunlight lamp was used as the light source in the instant example. The light fluxes that reaction solutions received in glass vials contained 39.8±0.5×10^−3 W/cm^2 of visible light in the wavelength (λ) range of 400-700 nm. The fluxes in the UV ranges contained 8.1±0.2×10^−6 W/cm^2 of UV-A (λ=315-400 nm) and 2.5±0.4×10^−6 W/cm^2 of UV-B (λ=280-315 nm), respectively. The UV-C flux (λ=230-280 nm) was negligible. Based on the flux measurement, UV light only accounted for <0.03% of the total light flux, and thus the light source utilized herein represents almost exclusively the visible light. The chemistry of PDS with visible light irradiation (PDS Light) and without (PDS Dark) was explored using six common herbicides and pharmaceuticals, namely atrazine (ATZ), sulfamethoxazole (SMX), trimethoprim (TMP), sulfadimethoxine (SDM), ibuprofen (IBP), and carbamazepine (CMZ) (FIGS. 1A-1F).

[3] = reported; cited from earlier work
[4] = Quenching, anoxic and D2O experiments of ATZ degradation by PDS; format: physicochemical
Method: In order to identify the main reactive species involved in the degradation of ATZ by PDS under light and in dark, four quenchers were added in the beginning of the reactions to scavenge possible reactive species. The concentration of MeOH, tert-butanol (TBA), and L-histidine (L-his) was 0.5 M, and the concentration of superoxide dismutase (SOD) was 50 U·ml^−1. To analyze the impact of oxygen, purified N2 gas was used to purge the system for 10 min before the quenching experiments. All tubes were capped and then sealed with parafilm to maintain an anoxic environment throughout the reaction. The ATZ concentrations in the samples taken at various time points (t=0, 5, 10, 30, 60, 120, and 240 min) were measured using HPLC. The degradation of ATZ was also repeated with D2O as the solvent for phosphate buffer with the same experimental setups.

Structure (SMILES): O=S(=O)([O-])OOS(=O)(=O)[O-].[K+].[K+] [PDS, Potassium peroxydisulfate]
- rate constant for R1 (photolysis of PDS by light) ([1]; based on the rate constant of PDS decay in dark and under light): around 8.8±1.1×10^−3 min^−1
- PDS decayed ([1]; in dark): Approximately 20%
- PDS decayed ([1]; under visible light): ~90%

Structure (SMILES): CCNc1nc(Cl)nc(NC(C)C)n1 [ATZ, 2-chloro-4-ethylamino-6-isopropylamino-s-triazine]
- ATZ degraded ([2]; PDS Dark, within 30 min): 37%
- pseudo-first-order rate constant kobs of ATZ degradation ([2]; PDS Dark): 0.72±0.09×10^−2 min^−1
- pseudo-first-order rate constants of ATZ degradation with UV filter versus without UV filter ([2]; PDS Light, UV filter film between lamp and vials): not statistically different
- degradation of ATZ ([2]; PDS Light, in 30 min): complete degradation
- pseudo-first-order rate constant kobs of ATZ degradation ([2]; PDS Light, oxic): 11±3.0×10^−2 min^−1
- k(SO4^●−/ATZ) [3]: 2.6−4.2×10^9 M^−1·s^−1
- ATZ degradation by PDS Light in presence of L-his ([4]; L-his 0.5 M): almost completely inhibited
- effect of D2O on rate constant of ATZ degradation ([4]; PDS Dark): negligible
- pseudo-first-order rate constant for ATZ degradation in D2O relative to water ([4]; PDS Light): more than 2.5 times
- pseudo-first-order rate constant kobs of ATZ degradation ([4]; PDS Light, anoxic condition (N2 purging), without scavengers): 7.3±0.9×10^−2 min^−1
- ATZ degradation by PDS Light in presence of scavengers ([4]; all four scavengers (MeOH, TBA, L-his 0.5 M; SOD 50 U·ml^−1)): significantly hindered
